These results are taken from patent publication US20240174690A1, “ANNULATED 2-AMINO-3-CYANO THIOPHENES AND DERIVATIVES FOR THE TREATMENT OF CANCER” (BOEHRINGER INGELHEIM INTERNATIONAL GMBH, priority 2021, published 2024).

Each structure is given as a SMILES string. Read-outs that look alike come from different tables or passages of the source.

The subject of assay [1] is NCI-H2122 cells. The assay is described as follows: NCI-H2122 CTG proliferation assay (120 h) (NSCLC, G12C). Type of assay: cell-based. As to conditions: Homo sapiens. The method, boiled down: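 NCI-H2122 cells (KRAS G12C NSCLC), 200 per well in RPMI with 10% FCS, were dosed with compound on day 1 and incubated 120 h at 37 °C. Viability was read by CellTiter-Glo luminescence as percent of DMSO control, and IC50 was fitted with a four-parameter model.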

The subject of assay [2] is NCI-H358 cells. Nature of the assay: NCI-H358 CTG proliferation assay (120 h) (NSCLC, G12C). Format: cell-based, human. As to conditions: Homo sapiens. In short, it runs like this: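 NCI-H358 cells (KRAS G12C) were seeded at 2000/well (assay 1) or 200/well (assay 2) in RPMI-1640 + 10% FCS and dosed with a logarithmic series, DMSO-normalized. After 120 h, viability was read by CellTiter-Glo luminescence as percent of DMSO control, with a T0 read at dosing. IC50 came from a four-parameter fit.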

For assay [3], the system named is KRAS G12D-dependent Ba/F3 cells. Nature of the assay: Ba/F3 proliferation assay, KRAS G12D. Type of assay: cell-based. The conditions noted are these: Mus musculus, BaF3, 72 h, AlamarBlue. The method, boiled down: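 Ba/F3 cells were retrovirally transduced with KRAS G12 mutant vectors, puromycin-selected (1 μg/mL) and grown without IL-3 to make them KRAS-dependent. Compounds were tested in technical duplicates, viability was read by AlamarBlue fluorescence, and values came from curve fitting.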

In assay [4] the test system is SK-CO-1 cells. Nature of the assay: SK-CO-1 CTG proliferation assay (120 h) (CRC, G12V). Type of assay: cell-based. The conditions noted are these: Homo sapiens; SK-CO-1 cells (CRC, G12V), CTG 120 h. The method, boiled down: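 SK-CO-1 colorectal cells (KRAS G12V), 500 per well in EMEM + 10% FCS, dosed with compound the day after seeding and grown 120 h at 37 °C. Viability by CellTiter-Glo luminescence as percent of DMSO control; IC50 from four-parameter non-linear regression.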

[5] abbreviates: assay 2, CTG, read-out: H358 (assay 2) IC50.
The mark [6] stands for this setting: assay 1, CTG, read-out: H358 (assay 1) IC50.

What is called IC50 is the point on the concentration scale where inhibition reaches its midpoint. Regarding `C[C@H](Oc1cc(-n2ccnn2)nc(-c2onc3c2CCC[C@@]32CCCc3sc(N)c(C#N)c32)n1)[C@@H]1CCCN1C` [I-32], the IC50 is 1510 nM in assay [1], 303 nM in assay [2] (setting [5]), 14 nM in assay [3] and 111 nM in assay [4].

For `C[C@H](Oc1cc(-c2ccn(C3COC3)n2)nc(-c2onc3c2CCC[C@@]32CCCc3sc(N)c(C#N)c32)n1)[C@@H]1CCCN1C` [I-34], the IC50 came out at 1070 nM in assay [1], 76 nM in assay [2] (setting [5]), 38 nM in assay [3] and 84 nM in assay [4].

In the case of `C[C@H](Oc1cc(N2CCN(C)C3(CCC3)C2)nc(-c2onc3c2CCC[C@@]32CCCc3sc(N)c(C#N)c32)n1)[C@@H]1CCCN1C` [I-44], the IC50 in assay [1] worked out at 1270 nM; in assay [2] (setting [5]), 2330 nM; in assay [3], 91 nM; in assay [4] it was 1210 nM.

For the compound `C[C@H](Oc1cc(N2C[C@@H](N(C)C)[C@@H](O)C2)nc(-c2noc3c2CCC[C@@]32CCCc3sc(N)c(C#N)c32)n1)[C@@H]1CCCN1C` [II-10], the IC50 in assay [1] amounted to 8440 nM; in assay [2] (setting [5]), 570 nM; in assay [3], 116 nM; in assay [4] it was 1660 nM.

`C[C@H](Oc1cc(-n2ccc(C(=O)N3CCCC3)n2)nc(-c2noc3c2CCC[C@@]32CCCc3sc(N)c(C#N)c32)n1)[C@@H]1CCCN1C` [II-19]: the IC50 was determined as 19 nM in assay [1]; 17 nM in assay [2] (setting [6]); 2 nM in assay [2] (setting [5]); 10 nM in assay [3]; 11 nM in assay [4].

In the case of `CNC(=O)c1ccn(-c2cc(O[C@@H](C)[C@@H]3CCCN3C)nc(-c3noc4c3CCC[C@@]43CCCc4sc(N)c(C#N)c43)n2)n1` [II-20], the IC50 in assay [1] turned out to be 2040 nM; in assay [2] (setting [6]), 6 nM; in assay [2] (setting [5]), 2 nM; in assay [3], 16 nM; in assay [4], 9 nM.

As for `C[C@H](Oc1cc(-n2ccc(C(N)=O)n2)nc(-c2noc3c2CCC[C@@]32CCCc3sc(N)c(C#N)c32)n1)[C@@H]1CCCN1C` [II-21], the IC50 in assay [1] came out at 128 nM; in assay [2] (setting [6]), 10 nM; in assay [2] (setting [5]), 4 nM; in assay [3], 23 nM; in assay [4] it was 6 nM.

Consider `CCOC(=O)c1ccn(-c2cc(O[C@@H](C)[C@@H]3CCCN3C)nc(-c3noc4c3CCC[C@@]43CCCc4sc(N)c(C#N)c43)n2)n1` [II-23], for which the IC50 was 2950 nM in assay [1], 4 nM in assay [2] (setting [5]), 53 nM in assay [3] and 31 nM in assay [4].

With `C[C@H](Oc1cc(-n2ccc(C(=O)NC3(C)COC3)n2)nc(-c2noc3c2CCC[C@@]32CCCc3sc(N)c(C#N)c32)n1)[C@@H]1CCCN1C` [II-26], the IC50 was determined as 143 nM in assay [1], 4 nM in assay [2] (setting [5]), 37 nM in assay [3] and 3 nM in assay [4].

For `C[C@H](Oc1cc(-c2ccn(C)n2)nc(-c2noc3c2CCC[C@@]32CCCc3sc(N)c(C#N)c32)n1)[C@@H]1C[C@@H](F)CN1C` [II-27], the IC50 turned out to be 898 nM in assay [1]; 112 nM in assay [2] (setting [6]); 44 nM in assay [2] (setting [5]); 49 nM in assay [3]; 115 nM in assay [4].

Take `C[C@H](Oc1cc(N2CCNC3(COC3)C2)nc(-c2noc3c2CCC[C@@]32CCCc3sc(N)c(C#N)c32)n1)[C@@H]1CCCN1C` [II-31]: the IC50 in assay [1] was 2550 nM; in assay [2] (setting [5]) it was 143 nM; in assay [3], 4 nM; in assay [4], 365 nM.

For the compound `CN[C@H]1CCN(c2cc(O[C@@H](C)[C@@H]3CCCN3C)nc(-c3noc4c3CCC[C@@]43CCCc4sc(N)c(C#N)c43)n2)C1` [II-35], the IC50 in assay [1] was 4800 nM; in assay [2] (setting [5]) it was 457 nM; in assay [3], 82 nM; in assay [4], 5730 nM.

In the case of `C[C@H](Oc1cc(N2CCNC3(CCC3)C2)nc(-c2noc3c2CCC[C@@]32CCCc3sc(N)c(C#N)c32)n1)[C@@H]1CCCN1C` [II-40], the IC50 in assay [1] was 1420 nM; in assay [2] (setting [5]), 1300 nM; in assay [3], 7 nM; in assay [4] it was 488 nM.

As to `C[C@H](Oc1cc(N2CCNC3(CCCC3)C2)nc(-c2noc3c2CCC[C@@]32CCCc3sc(N)c(C#N)c32)n1)[C@@H]1CCCN1C` [II-41], the IC50 amounted to 1650 nM in assay [1], 1520 nM in assay [2] (setting [5]), 26 nM in assay [3] and 910 nM in assay [4].

As to `C[C@H](Oc1cc(-c2ccn([C@H]3CCCOC3)n2)nc(-c2noc3c2CCC[C@@]32CCCc3sc(N)c(C#N)c32)n1)[C@@H]1CCCN1C` [II-42], the IC50 in assay [1] turned out to be 357 nM; in assay [2] (setting [5]) it was 136 nM; in assay [3] it was 26 nM; in assay [4] it was 38 nM.

With `C[C@H](Oc1cc(-c2ccn(C[C@@H]3CCCO3)n2)nc(-c2noc3c2CCC[C@@]32CCCc3sc(N)c(C#N)c32)n1)[C@@H]1CCCN1C` [II-43], the IC50 in assay [1] was determined as 102 nM; in assay [2] (setting [5]) it was 117 nM; in assay [3], 34 nM; in assay [4] it was 46 nM.

In the case of `C[C@H](Oc1cc(C2CCCO2)nc(-c2noc3c2CCC[C@@]32CCCc3sc(N)c(C#N)c32)n1)[C@@H]1CCCN1C` (stereo partly shown) [II-44], the IC50 came out at 1580 nM in assay [1], 398 nM in assay [2] (setting [5]), 32 nM in assay [3] and 193 nM in assay [4].

On to `C[C@H](Oc1cc(N2CCNCC2)nc(-c2noc3c2CCC[C@@]32CCCc3sc(N)c(C#N)c32)n1)[C@@H]1CCCN1C` [II-45], for which the IC50 in assay [1] is 10600 nM; in assay [2] (setting [6]), 969 nM; in assay [2] (setting [5]), more than 25000 nM; in assay [3], 58 nM; in assay [4] it was 1790 nM.

In the case of `C[C@H](Oc1cc(N2CC[C@@H](N(C)C)C2)nc(-c2noc3c2CCC[C@@]32CCCc3sc(N)c(C#N)c32)n1)[C@@H]1CCCN1C` [II-47], the IC50 in assay [1] worked out at 2020 nM; in assay [2] (setting [5]) it was 2050 nM; in assay [3], 40 nM; in assay [4], 600 nM.

As to `C[C@H](Oc1cc(N2CCC(N(C)C)CC2)nc(-c2noc3c2CCC[C@@]32CCCc3sc(N)c(C#N)c32)n1)[C@@H]1CCCN1C` [II-48], the IC50 in assay [1] turned out to be 3100 nM; in assay [2] (setting [5]), 2160 nM; in assay [3] it was 70 nM; in assay [4], 1070 nM.
